# What was measured:
# [1] = PFCA guest response across the nine PFCAs (UV-Vis, RGB, one-way ANOVA variance); conditions: dichloromethane
# Description: Experiments were performed at concentrations that could be monitored by the naked eye for practical sensing of PFAS in the field. Complexes of hosts (9), (11) and (12) were formed with the nine different perfluorocarboxylic acids (PFCAs) shown in Table 2 above and the colours of each host−PFCA complex were photographed in a lightbox and analysed using ImageJ software RGB analysis. Pixels of the solution were chosen at random to provide an RGB value. Multiple RGB values were recorded for each host−PFCA solution, and an average colour can be produced. From those values an RGB parameter was used to give a response value for modelling (Tahir et al., 2016).
# After preliminary screenings, UV-Vis spectra were collected before and after the addition of 1 molar equivalent of each PFCA for each host, and the degree of complexation was noted by shifts in the Soret bands and formation of a peak at ca. 650 nm. To eliminate dilution effects, PFCA guest solutions were prepared in the equivalent concentration of host. If there was a notable host−guest interaction for a particular PFCA, the host−guest binding was investigated with more rigorous UV-Vis experiments, binding studies, and further colour analyses. Throughout these investigations, PFOA was considered the “average” PFCA both because of its position in the range of PFCA sizes and because its prevalence is often an indication of broader PFAS contamination. In any experiment where binding was further investigated for a particular PFCA, it was typically replicated with PFOA for comparison.
# One-way factorial ANOVA was used to examine the dependence (or independence) of two or more factors affecting the dependent variable concurrently, in the present case the change in absorption, or the change in RGB response across the tested PFCAs, or across the different hosts. This analysis was used to determine the variance in the responses of each host across the different PFCAs. […]
# [2] = GenX vapour test with host-doped filter paper; conditions: for colour of host-doped paper in tube headspace: one hour
# Description: A solution of medium chain host (9) (2.20×10^−5 M) in dichloromethane was prepared. Whatman 4 filter papers were soaked/dipped in the host solution and left to air dry on a watch glass. An aqueous solution of GenX™ (1 ppm, 3.03×10^−6 M) was prepared in a glass volumetric flask (1 L). The volumetric flask stopper was removed, and the dried host-doped paper was laid on top the opening.
# An aqueous solution of GenX™ (1 ppm, 3.03×10^−6 M) was prepared in a glass volumetric flask (1 L). A solution of medium chain host (2.20×10^−5 M) in dichloromethane was prepared. Whatman 4 filter papers were soaked/dipped in the host solution and left to air dry on a watch glass. The filter papers were cut into strips and adhered to the lids of HDPP tubes. Aqueous samples of GenX™ were diluted to 1 ppm, 1 ppb and 1 ppt and poured into the HDPP tubes. The caps were immediately replaced, and the tubes were left for an hour.
# [3] = Filter paper tests; conditions: aqueous PFOA in the <5 ppm range, dipped or dropped
# Description: Sensor molecule (9) was dissolved in dichloromethane and filter papers were soaked in the solution. The papers were removed and dried by evaporation. The paper was then dipped into aqueous solutions of PFOA or aqueous solutions were dropped onto the paper. […] The aqueous solutions of PFOA tested were in the <5 ppm range.
# [4] = RGB response, low PFCA concentration
# Excerpt: (§1) RGB response curves were established by combining solutions of host (12) (5.01×10^−6 M) with solutions of PFOA (0-16 ppm, 3.86×10^−5 M) in dichloromethane. […] Thus, when establishing a calibration curve, the relative proportion of free host to host−PFCA complex limiting the variability of colour response must be considered for the application.
# In the “low” PFCA concentration experiment, the RGB response values had the greatest rate of change from 0-40 ppb PFOA and appeared to level out between 40-80 ppb PFOA. In that instance, the regression was fit for a host : guest ratio of 0-0.8. To probe the sensor's response to a mixture of PFCAs, samples containing combinations of PFHxA, PFHpA, and PFDA in dichloromethane (7-28 ppb) were prepared and the RGB responses were collected. The PFCA concentrations for the samples were predicted using the PFOA regression (y=0.0591 ln(x)+0.037, R^2=0.9771).
# The RGB response values can differentiate between 0 and 1 ppb PFOA numerically on the regression, but to determine the visual detectability, the ΔE values can be calculated. […] Samples from 0-5 ppb PFOA gave a colour change that could be determined as different from the starting host solution (ΔE=4-8) (Table 11). […] Thus, a conservative visual limit of detection of 10 ppb PFCA may be considered for an untrained observer making threshold analysis.
# [5] = Colorimetric matching of a PFCA sample, organic; conditions: CIE76
# Description: To probe the sensitivity of this technique visually, a colour chart based on the response of host (12) to known concentrations of PFOA was tested against another PFCA. The PFCA was chosen to be PFHxA, as PFOA was used for the calibration process. Samples of PFHxA (4 ppm) were prepared and combined with host (12). The average colour from triplicate experiments was compared to a calibration chart. The RGB values for host (12) were collected at six concentrations of PFOA. To make a direct comparison to the 4 ppm PFHxA sample, a colour chart was generated by fitting four colour points between the measured values for 0 and 5 ppm of PFOA. The generated RGB value for the 4 ppm PFOA was then compared to the measured RGB value for the 4 ppm PFHxA sample. […] The 3 and 5 ppm PFOA colours had ΔE values of 10.3 and 9.5 respectively, making the 4 ppm colour the most suitable match.
# [6] = RGB response curve, high PFCA concentration; conditions: host 5.01×10^−6 M, dichloromethane
# Excerpt: The present inventors investigated the colorimetric responses for host (12) with “high” concentrations of PFCA (where [host]<[guest]), and “low” concentrations of PFCA (where [host]>[guest]). Generally, RGB response values will increase with increasing concentrations of PFCA until the host has been saturated; beyond the saturation limit, RGB response values are similar. When there was an excess of guest, the response values could only be used as a threshold indication for PFCA concentrations.
# as §1
# For the “high” PFCA concentration experiment, the PFOA generated calibration curve (y=0.0401 ln(x)+0.2366, R^2=0.9677) (FIG. 17) begins to level out at ca. 2 ppm. Above that concentration, the RGB response values are difficult to differentiate.
SMILES,colorimetric response to all nine PFCAs [1],"colour change of host-doped paper over aqueous GenX ([2]; GenX 1 ppm in water, paper on flask opening)",colour of host-doped paper in tube headspace ([2]; aqueous GenX 1 ppb),colour of host-doped paper in tube headspace ([2]; aqueous GenX 1 ppm),colour change of host-soaked filter paper [3],ΔE vs host solution ([4]; 1.3 ppb PFOA),"conservative visual limit of detection ([4]; PFCA, untrained observer, threshold analysis) [ppb]",ΔE (Host − PFCA) ([4]; PFOA 1 ppb),ΔE (Host − PFCA) ([4]; PFOA 3 ppb),ΔE (Host − PFCA) ([4]; PFOA 5 ppb),ΔE (Host − PFCA) ([4]; PFOA 10 ppb),ΔE (Host − PFCA) ([4]; PFOA 21 ppb),ΔE (Host − PFCA) ([4]; PFOA 41 ppb),ΔE (Host − PFCA) ([4]; PFOA 83 ppb),ΔE vs starting host solution ([4]; samples from 0-5 ppb PFOA),"ΔE, PFOA chart colour vs 4 ppm PFHxA sample ([5]; 3 ppm PFOA colour)","ΔE, PFOA chart colour vs 4 ppm PFHxA sample ([5]; 4 ppm PFOA colour)","ΔE, PFOA chart colour vs 4 ppm PFHxA sample ([5]; 5 ppm PFOA colour)",PFOA concentration at which calibration curve begins to level out [6]
"O=C(Nc1ccccc1-c1c2nc(c(-c3ccccc3NC(=O)C(F)(F)C(F)(F)C(F)(F)C(F)(F)C(F)(F)C(F)(F)C(F)(F)F)c3ccc([nH]3)c(-c3ccccc3NC(=O)C(F)(F)C(F)(F)C(F)(F)C(F)(F)C(F)(F)C(F)(F)C(F)(F)F)c3nc(c(-c4ccccc4NC(=O)C(F)(F)C(F)(F)C(F)(F)C(F)(F)C(F)(F)C(F)(F)C(F)(F)F)c4ccc1[nH]4)C=C3)C=C2)C(F)(F)C(F)(F)C(F)(F)C(F)(F)C(F)(F)C(F)(F)C(F)(F)F [host (9), α,α,α,α-5,10,15,20-tetrakis(2-(pentadecafluorooctanoylamino)phenyl)porphyrin]",colorimetric response was visible,A colour change developed immediately,A green colour was visible,A green colour was visible,A colour change was discernible,,,,,,,,,,,,,,
"O=C(Nc1ccccc1-c1c2nc(c(-c3ccccc3NC(=O)C(F)(F)C(F)(F)C(F)(F)C(F)(F)C(F)(F)C(F)(F)C(F)(F)C(F)(F)C(F)(F)C(F)(F)C(F)(F)F)c3ccc([nH]3)c(-c3ccccc3NC(=O)C(F)(F)C(F)(F)C(F)(F)C(F)(F)C(F)(F)C(F)(F)C(F)(F)C(F)(F)C(F)(F)C(F)(F)C(F)(F)F)c3nc(c(-c4ccccc4NC(=O)C(F)(F)C(F)(F)C(F)(F)C(F)(F)C(F)(F)C(F)(F)C(F)(F)C(F)(F)C(F)(F)C(F)(F)C(F)(F)F)c4ccc1[nH]4)C=C3)C=C2)C(F)(F)C(F)(F)C(F)(F)C(F)(F)C(F)(F)C(F)(F)C(F)(F)C(F)(F)C(F)(F)C(F)(F)C(F)(F)F [host (12), α,α,α,α-5,10,15,20-tetrakis(2-(tricosafluorododecanoylamino)phenyl) porphyrin]",provided a colorimetric response,,,,,≥ 2,10,4,6,8,11,12,15,17,4-8,10.3,7.3,9.5,ca. 2 ppm

# Reference: patent US20240166658A1, “PORPHYRIN DERIVATIVES AND USES THEREOF” (University of Tasmania, priority 2021, published 2024)
